The values below come from PubChem BioAssay (NCI).

Values joined by “and” are separate entries in the source; they are usually repeats but may differ in a detail not shown here. Identical values can stand only once.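 96-well plates; 48 h exposure; 5 concentrations. Endpoints by linear interpolation between flanking doses. Not reached: highest tested concentration assigned. GI50 marks 50% less growth. TGI denotes the concentration required for complete inhibition of growth.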 Some results are limits rather than exact numbers.

Test systems include RPMI-8226 leukemia; SF-295 CNS; DU-145 prostate; HT29 colon; UACC-257 melanoma; SR leukemia; 786-0 renal; RXF 393 renal; KM12 colon.
Holding throughout (assay): NCI anticancer screen, dose series, 48 h

Take `CCOCC(=O)N[C@H]1CCc2cc(OC)c(OC)c(OC)c2-c2ccc(OC)c(=O)cc21`: the TGI in the assay with RPMI-8226 leukemia is over 100 µM; in the assay on SF-295 CNS, 0.379 µM; in the assay with DU-145 prostate, 0.107 µM; in the assay on HT29 colon, over 8.15 µM; with UACC-257 melanoma it was over 100 µM; in the assay with SR leukemia it was over 100 µM. Further, the TGI in the assay with 786-0 renal was over 100 µM; in the assay with RXF 393 renal, over 100 µM; with KM12 colon, 0.0334 µM.

As to `Cn1c2ccccc2c2ccc3c(c21)C(=O)c1ccccc1C3=O`, the TGI was 36.1 µM with RPMI-8226 leukemia; 42 µM with SF-295 CNS; over 100 µM in the assay on DU-145 prostate; 39.5 µM in the assay on HT29 colon; 67.5 µM in the assay on UACC-257 melanoma; 13.9 µM with SR leukemia. Also, the TGI is 47.3 µM in the assay on 786-0 renal, 32 µM in the assay with RXF 393 renal and over 100 µM with KM12 colon.

As to `Cc1ccc(C(=O)N(CCCN)C(c2oc3cc(Cl)ccc3c(=O)c2Cc2ccccc2)C(C)C)cc1` (stereo not given), the GI50 in the assay on RPMI-8226 leukemia, in the assay with SF-295 CNS, in the assay on DU-145 prostate, in the assay on HT29 colon, with UACC-257 melanoma and with SR leukemia was under 0.01 µM in each case. Further, the GI50 in the assay on 786-0 renal, in the assay on RXF 393 renal and with KM12 colon was under 0.01 µM throughout. Also, the TGI amounted to 1.46 µM in the assay with RPMI-8226 leukemia; 1.48 µM in the assay with SF-295 CNS; 0.437 µM with HT29 colon; 1.97 µM in the assay on UACC-257 melanoma; 1.86 µM with SR leukemia; 2.11 µM in the assay with 786-0 renal. In addition, the TGI stood at 1.48 µM with RXF 393 renal and 1.47 µM with KM12 colon.

On to `O=C(O)CCNC1CCCCC1`, for which the GI50 in the assay with RPMI-8226 leukemia, with SF-295 CNS, in the assay on DU-145 prostate, with HT29 colon, in the assay with UACC-257 melanoma and in the assay with SR leukemia was over 100 µM each time. Moreover, the GI50 in the assay on 786-0 renal, in the assay on RXF 393 renal and in the assay on KM12 colon was over 100 µM each time. Besides, the TGI in the assay with RPMI-8226 leukemia, in the assay on SF-295 CNS, in the assay on DU-145 prostate, in the assay on HT29 colon, in the assay on UACC-257 melanoma and in the assay with SR leukemia was over 100 µM each time. For the same compound, the TGI with 786-0 renal, in the assay on RXF 393 renal and with KM12 colon was over 100 µM each time.

Consider `O=C1C(Cl)=C(NCCN2CCOCC2)C(=O)c2ncccc21`, for which the GI50 in the assay with RPMI-8226 leukemia was 2.72 µM; in the assay with UACC-257 melanoma, 1.37 µM; with SR leukemia, 2.01 µM; with 786-0 renal, 2.5 µM; in the assay with RXF 393 renal it was 1.66 µM; with KM12 colon it was 3.55 µM. Moreover, the TGI in the assay with RPMI-8226 leukemia is 9.23 µM; with SF-295 CNS, 3.33 µM and 3.3 µM; with DU-145 prostate, 3.11 µM and 3.14 µM; in the assay with HT29 colon, 6.74 µM; in the assay on UACC-257 melanoma, 3.13 µM and 2.69 µM; in the assay with SR leukemia, 5.61 µM. Moreover, the TGI is 2.81 µM and 7.83 µM in the assay with 786-0 renal; 3.38 µM and 3.06 µM with RXF 393 renal; 3.1 µM and 16.1 µM with KM12 colon.

With `Nc1nc2c(nnn2C2CC(O)C(CO)O2)c(=O)[nH]1` (stereo not given), the GI50 with RPMI-8226 leukemia was 2.65 µM; in the assay with SF-295 CNS, 2.54 µM; with DU-145 prostate, 1.45 µM; in the assay with HT29 colon, 13.5 µM; in the assay with UACC-257 melanoma, over 48.9 µM; with SR leukemia, 2.54 µM. Also, the GI50 in the assay with 786-0 renal is 2.99 µM; in the assay with RXF 393 renal, 3.05 µM; with KM12 colon it was 5.39 µM. Moreover, the TGI in the assay on RPMI-8226 leukemia is over 100 µM; in the assay on SF-295 CNS it was over 56.3 µM; with DU-145 prostate it was over 100 µM; in the assay on HT29 colon it was over 100 µM; with UACC-257 melanoma, over 100 µM; in the assay with SR leukemia it was over 76.2 µM. Further, the TGI was over 100 µM in the assay with 786-0 renal, 33.8 µM in the assay on RXF 393 renal and over 100 µM in the assay with KM12 colon.

Regarding `CS(=O)(=O)c1ccc(-n2nc(C(F)(F)F)cc2OC2CCCC2)cc1`, the GI50 was 34.8 µM in the assay on RPMI-8226 leukemia; 37.4 µM with SF-295 CNS; 38.9 µM with DU-145 prostate; 24.7 µM with HT29 colon; 40.1 µM with UACC-257 melanoma; 19.8 µM in the assay with SR leukemia. Moreover, the GI50 was 34 µM with 786-0 renal, 94.3 µM in the assay on RXF 393 renal and 38.5 µM in the assay with KM12 colon. The TGI is over 100 µM in the assay on RPMI-8226 leukemia; over 100 µM in the assay on SF-295 CNS; over 100 µM with DU-145 prostate; 78.4 µM with HT29 colon; over 100 µM in the assay with UACC-257 melanoma; 47.9 µM in the assay on SR leukemia. Moreover, the TGI in the assay on 786-0 renal, in the assay on RXF 393 renal and in the assay on KM12 colon was over 100 µM in each case.

On to `CCCCCCCC[C@@H](O)CC(=O)N[C@@H](CC(N)=O)C(=O)N[C@@H](CCC(N)=O)C(=O)N[C@@H](CC(=O)c1cc(C)cc(O)c1C(=O)c1c(O)cccc1O)CC(C)C`, for which the GI50 in the assay with RPMI-8226 leukemia is 0.0926 µM; with SF-295 CNS, 1.97 µM; with DU-145 prostate, 1.14 µM; with HT29 colon it was 0.404 µM; in the assay with UACC-257 melanoma, 0.45 µM; in the assay with SR leukemia, 0.112 µM. The GI50 with 786-0 renal is 0.507 µM; with RXF 393 renal, 0.214 µM; in the assay on KM12 colon it was 0.971 µM. Besides, the TGI was 0.883 µM in the assay with RPMI-8226 leukemia; 7.53 µM with SF-295 CNS; 18.3 µM in the assay on DU-145 prostate; 5.49 µM in the assay with HT29 colon; 4.68 µM in the assay with UACC-257 melanoma; over 100 µM in the assay on SR leukemia. Further, the TGI in the assay with 786-0 renal was 9.84 µM; in the assay with RXF 393 renal, 0.713 µM; in the assay on KM12 colon, 3.3 µM.

Take `CC1CN1C(=O)NCCCCCCNC(=O)N1CC1C` (stereo not given): the TGI is over 100 µM in the assay with RPMI-8226 leukemia; over 100 µM in the assay on SF-295 CNS; over 100 µM in the assay on DU-145 prostate; over 100 µM with HT29 colon; over 100 µM in the assay on UACC-257 melanoma; 60.2 µM with SR leukemia. Moreover, the TGI in the assay with 786-0 renal, in the assay with RXF 393 renal and in the assay on KM12 colon was over 100 µM each time.

As to `O=C(O)C(=Cc1ccc(-c2ccccc2)cc1)C(=O)O`, the TGI with RPMI-8226 leukemia is 20.6 µM; in the assay with SF-295 CNS, 53.3 µM; in the assay with DU-145 prostate, over 39 µM; in the assay with HT29 colon, over 49.3 µM; with UACC-257 melanoma, 25 µM; with SR leukemia it was 14.7 µM. Besides, the TGI in the assay with 786-0 renal came to 41.4 µM; with RXF 393 renal, 14.5 µM; in the assay on KM12 colon, 40.9 µM.
